Active and inactive are the calls of the source. The rule behind the calls is not given here.
Columns and labels:
[1] = target: NUAK family SNF1-like kinase 1 (Homo sapiens) (UniProt O60285); test: Inhibition of ARK5 (unknown origin) at 1 uM
[2] = target: MAP kinase-activated protein kinase 5 (Homo sapiens) (UniProt Q8IW41); test: Inhibition of MAPKAPK5 (unknown origin) at 1 uM
[3] = tested on: HCT-116; test: Antitumor immunity in BALB/c mouse xenografted with human HCT-116 cells assessed as live Treg cells in spleen by propidium iodide staining based flow cytometry analysis (reference value: 70.9 %); assay type: functional
[4] = target: Bone morphogenetic protein receptor type-2 (Homo sapiens) (UniProt Q13873); test: Inhibition of BMPR2 (unknown origin) at 1 uM
[5] = target: Serine/threonine-protein kinase A-Raf (Homo sapiens) (UniProt P10398); test: Inhibition of ARAF (unknown origin) at 1 uM
Chain of Serine/threonine-protein kinase A-Raf (Homo sapiens) (P10398 whole entry): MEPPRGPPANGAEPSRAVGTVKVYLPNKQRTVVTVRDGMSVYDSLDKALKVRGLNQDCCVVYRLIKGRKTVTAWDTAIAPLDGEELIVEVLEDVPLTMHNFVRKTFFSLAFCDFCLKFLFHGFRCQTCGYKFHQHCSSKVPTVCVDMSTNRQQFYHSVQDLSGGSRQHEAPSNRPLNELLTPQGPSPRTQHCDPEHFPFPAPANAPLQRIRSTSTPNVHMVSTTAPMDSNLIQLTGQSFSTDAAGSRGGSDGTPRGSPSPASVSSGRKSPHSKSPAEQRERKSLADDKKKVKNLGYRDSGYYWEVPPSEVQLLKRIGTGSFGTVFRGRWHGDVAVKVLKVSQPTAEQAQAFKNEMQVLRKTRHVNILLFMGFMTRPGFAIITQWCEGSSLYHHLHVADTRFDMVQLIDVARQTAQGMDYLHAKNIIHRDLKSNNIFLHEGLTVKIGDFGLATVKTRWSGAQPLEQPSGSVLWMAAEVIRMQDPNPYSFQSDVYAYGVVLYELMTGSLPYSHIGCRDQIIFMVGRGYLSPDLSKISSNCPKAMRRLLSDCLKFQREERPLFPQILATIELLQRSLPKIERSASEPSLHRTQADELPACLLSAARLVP

[6] = target: Serine/threonine-protein kinase ULK2 (Homo sapiens) (UniProt Q8IYT8); test: Inhibition of ULK2 (unknown origin) at 1 uM
[7] = target: Vascular endothelial growth factor receptor 2 (Homo sapiens) (UniProt P35968); test: Inhibition of KDR (unknown origin) at 1 uM
[8] = target: Serine/threonine-protein kinase 38 (Homo sapiens) (UniProt Q15208); test: Inhibition of STK38 (unknown origin) at 1 uM
Chain of Serine/threonine-protein kinase 38 (Homo sapiens) (Q15208 2-465 limits assumed): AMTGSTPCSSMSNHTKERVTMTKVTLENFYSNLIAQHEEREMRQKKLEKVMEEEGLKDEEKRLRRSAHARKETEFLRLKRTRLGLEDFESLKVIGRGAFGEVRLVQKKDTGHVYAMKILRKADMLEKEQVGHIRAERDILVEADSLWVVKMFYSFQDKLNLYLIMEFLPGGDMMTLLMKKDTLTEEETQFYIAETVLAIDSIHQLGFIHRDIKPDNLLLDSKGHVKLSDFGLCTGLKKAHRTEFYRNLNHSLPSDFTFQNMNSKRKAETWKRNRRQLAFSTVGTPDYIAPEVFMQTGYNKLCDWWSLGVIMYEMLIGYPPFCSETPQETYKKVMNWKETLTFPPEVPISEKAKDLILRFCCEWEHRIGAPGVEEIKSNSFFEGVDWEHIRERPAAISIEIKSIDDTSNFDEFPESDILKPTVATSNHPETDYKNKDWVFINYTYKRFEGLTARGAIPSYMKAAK

[9] = target: Serine/threonine-protein kinase SIK1 (Homo sapiens) (UniProt P57059); test: Inhibition of SIK1 (unknown origin) at 1 uM
Chain of Serine/threonine-protein kinase SIK1 (Homo sapiens) (P57059 whole entry): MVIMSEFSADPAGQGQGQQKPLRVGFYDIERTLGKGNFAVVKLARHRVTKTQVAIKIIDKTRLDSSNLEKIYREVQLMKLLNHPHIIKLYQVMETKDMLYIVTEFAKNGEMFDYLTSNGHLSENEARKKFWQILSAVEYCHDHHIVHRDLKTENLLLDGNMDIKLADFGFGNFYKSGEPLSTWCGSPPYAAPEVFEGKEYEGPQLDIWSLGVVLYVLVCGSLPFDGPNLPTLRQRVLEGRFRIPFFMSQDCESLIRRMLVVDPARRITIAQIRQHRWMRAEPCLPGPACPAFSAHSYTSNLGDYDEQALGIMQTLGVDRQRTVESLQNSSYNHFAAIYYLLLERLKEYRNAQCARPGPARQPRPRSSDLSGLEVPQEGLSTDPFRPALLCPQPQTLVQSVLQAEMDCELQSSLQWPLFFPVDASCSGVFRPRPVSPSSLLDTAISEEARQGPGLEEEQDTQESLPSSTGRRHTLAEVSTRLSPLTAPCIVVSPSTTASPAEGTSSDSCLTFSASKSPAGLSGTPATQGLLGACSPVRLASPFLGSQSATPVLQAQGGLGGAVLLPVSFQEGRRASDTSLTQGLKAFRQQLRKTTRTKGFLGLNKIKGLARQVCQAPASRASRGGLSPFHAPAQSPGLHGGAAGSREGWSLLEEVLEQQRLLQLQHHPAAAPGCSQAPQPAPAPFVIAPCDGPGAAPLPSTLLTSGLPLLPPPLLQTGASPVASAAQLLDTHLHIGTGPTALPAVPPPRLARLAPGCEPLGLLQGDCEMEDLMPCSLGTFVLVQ

[10] = target: Rho-associated protein kinase 1 (Homo sapiens) (UniProt Q13464); test: Inhibition of ROCK1 (unknown origin) at 1 uM
[11] = Half life in dog liver microsomes assessed as rate constant; assay type: ADME, Canis lupus familiaris, Microsome
[12] = target: ALK tyrosine kinase receptor (Homo sapiens) (UniProt Q9UM73); test: Inhibition of ALK (unknown origin) at 1 uM
[13] = target: Ephrin type-B receptor 4 (Homo sapiens) (UniProt P54760); test: Inhibition of EPHB4 (unknown origin) at 1 uM
[14] = target: Phosphorylase b kinase gamma catalytic chain, skeletal muscle/heart isoform (Homo sapiens) (UniProt Q16816); test: Inhibition of PHKgamma1 (unknown origin) at 1 uM
Chain of Phosphorylase b kinase gamma catalytic chain, skeletal muscle/heart isoform (Homo sapiens) (Q16816 whole entry, looked up, canonical isoform): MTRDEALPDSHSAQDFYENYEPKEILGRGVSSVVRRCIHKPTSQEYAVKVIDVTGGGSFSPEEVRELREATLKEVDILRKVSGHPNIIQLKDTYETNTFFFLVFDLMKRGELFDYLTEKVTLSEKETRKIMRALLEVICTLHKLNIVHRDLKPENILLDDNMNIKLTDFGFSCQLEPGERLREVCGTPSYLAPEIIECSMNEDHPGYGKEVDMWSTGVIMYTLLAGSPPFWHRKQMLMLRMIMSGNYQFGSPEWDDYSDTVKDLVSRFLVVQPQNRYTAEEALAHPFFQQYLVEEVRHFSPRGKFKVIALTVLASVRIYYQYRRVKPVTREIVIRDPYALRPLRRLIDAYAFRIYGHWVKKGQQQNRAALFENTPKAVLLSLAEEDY

[15] = target: Ribosomal protein S6 kinase alpha-3 (Homo sapiens) (UniProt P51812); test: Inhibition of RSK2 (unknown origin) at 1 uM
[16] = target: Tyrosine-protein kinase Lyn (Homo sapiens) (UniProt P07948); test: Inhibition of LYN (unknown origin) at 1 uM
[17] = target: Fibroblast growth factor receptor 1 (Homo sapiens) (UniProt P11362); test: Inhibition of FGFR1 (unknown origin) at 1 uM
[18] = target: Receptor-interacting serine/threonine-protein kinase 2 (Homo sapiens) (UniProt O43353); test: Inhibition of RIPK2 (unknown origin) at 1 uM
[19] = target: Tyrosine-protein kinase receptor TYRO3 (Homo sapiens) (UniProt Q06418); test: Inhibition of TYRO3 (unknown origin) at 1 uM
[20] = target: Vascular endothelial growth factor receptor 1 (Homo sapiens) (UniProt P17948); test: Inhibition of FLT1 (unknown origin) at 1 uM
[21] = target: Tyrosine-protein kinase BTK (Homo sapiens) (UniProt Q06187); test: Inhibition of BTK (unknown origin) at 1 uM
[22] = target: CDK6/cyclin D3 (Homo sapiens) (UniProt P30281+Q00534); test: Inhibition of CDK6/cyclin-D3 (unknown origin) at 1 uM; assay type: protein-complex assay
[23] = target: Mitogen-activated protein kinase kinase kinase 7 (Homo sapiens) (UniProt O43318); test: Inhibition of TAK1 (unknown origin) at 1 uM
[24] = target: Serine/threonine-protein kinase N2 (Homo sapiens) (UniProt Q16513); test: Inhibition of PKN2 (unknown origin) at 1 uM
[25] = tested on: Mus musculus; test: In vivo inhibition of IDO1/IDO2 in BALB/c mouse xenografted with human HCT-116 cells assessed as downregulation of Foxp3 mRNA expression in tumor by quantitative RT-PCR analysis; assay type: functional, organism-based
[26] = target: Serine/threonine-protein kinase PLK3 (Homo sapiens) (UniProt Q9H4B4); test: Inhibition of PLK3 (unknown origin) at 1 uM
[27] = target: Casein kinase I isoform gamma-3 (Homo sapiens) (UniProt Q9Y6M4); test: Inhibition of CK1gamma3 (unknown origin) at 1 uM
[28] = target: Mitogen-activated protein kinase kinase kinase 19 (Homo sapiens) (UniProt Q56UN5); test: Inhibition of YSK4 (unknown origin) at 1 uM
[29] = target: Hepatocyte growth factor receptor (Homo sapiens) (UniProt P08581); test: Inhibition of c-MET (unknown origin) at 1 uM
[30] = target: Interleukin-1 receptor-associated kinase 4 (Homo sapiens) (UniProt Q9NWZ3); test: Inhibition of IRAK4 (unknown origin) at 1 uM
[31] = target: CDK3/Cyclin E (Homo sapiens) (UniProt P24864+Q00526); test: Inhibition of CDK3/cyclin-E (unknown origin) at 1 uM; assay type: protein-complex assay
[32] = target: NUAK family SNF1-like kinase 2 (Homo sapiens) (UniProt Q9H093); test: Inhibition of SNARK (unknown origin) at 1 uM
[33] = target: Dual specificity tyrosine-phosphorylation-regulated kinase 1A (Homo sapiens) (UniProt Q13627); test: Inhibition of DYRK1A (unknown origin) at 1 uM
[34] = target: Serine/threonine-protein kinase Sgk2 (Homo sapiens) (UniProt Q9HBY8); test: Inhibition of SGK2 (unknown origin) at 1 uM
[35] = target: Insulin receptor-related protein (Homo sapiens) (UniProt P14616); test: Inhibition of IRR (unknown origin) at 1 uM
[36] = target: Myotonin-protein kinase (Homo sapiens) (UniProt Q09013); test: Inhibition of DMPK (unknown origin) at 1 uM
[37] = target: Inactive tyrosine-protein kinase PEAK1 (Homo sapiens) (UniProt Q9H792); test: Inhibition of PEAK1 (unknown origin) at 1 uM
[38] = target: Insulin receptor (Homo sapiens) (UniProt P06213); test: Inhibition of IR (unknown origin) at 1 uM
[39] = target: Serine/threonine-protein kinase PLK1 (Homo sapiens) (UniProt P53350); test: Inhibition of PLK1 (unknown origin) at 1 uM
[40] = target: T1, Cyclin-dependent kinase 5/CDK5 activator 1 (Homo sapiens) (UniProt Q00535+Q15078); test: Inhibition of CDK5/p25 (unknown origin) at 1 uM; assay type: protein-complex assay
T1 sequence (Q00535 whole entry): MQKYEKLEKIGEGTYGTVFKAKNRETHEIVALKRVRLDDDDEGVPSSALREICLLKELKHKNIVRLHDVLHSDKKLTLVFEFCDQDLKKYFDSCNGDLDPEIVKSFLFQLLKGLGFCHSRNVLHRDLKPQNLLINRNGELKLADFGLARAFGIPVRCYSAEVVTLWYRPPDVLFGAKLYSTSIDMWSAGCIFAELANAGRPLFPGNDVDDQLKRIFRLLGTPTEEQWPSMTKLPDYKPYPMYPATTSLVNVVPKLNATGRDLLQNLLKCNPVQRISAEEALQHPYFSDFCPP
T1 sequence (Q15078 99-307 partner limits assumed): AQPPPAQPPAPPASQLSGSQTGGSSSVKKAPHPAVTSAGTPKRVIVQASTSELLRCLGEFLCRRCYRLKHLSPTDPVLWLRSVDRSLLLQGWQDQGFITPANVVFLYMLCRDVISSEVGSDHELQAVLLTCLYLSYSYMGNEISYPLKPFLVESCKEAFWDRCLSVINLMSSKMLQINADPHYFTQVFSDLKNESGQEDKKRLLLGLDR

[41] = target: Myosin-IIIa (Homo sapiens) (UniProt Q8NEV4); test: Inhibition of MYO3A (unknown origin) at 1 uM
Chain of Myosin-IIIa (Homo sapiens) (Q8NEV4 whole entry): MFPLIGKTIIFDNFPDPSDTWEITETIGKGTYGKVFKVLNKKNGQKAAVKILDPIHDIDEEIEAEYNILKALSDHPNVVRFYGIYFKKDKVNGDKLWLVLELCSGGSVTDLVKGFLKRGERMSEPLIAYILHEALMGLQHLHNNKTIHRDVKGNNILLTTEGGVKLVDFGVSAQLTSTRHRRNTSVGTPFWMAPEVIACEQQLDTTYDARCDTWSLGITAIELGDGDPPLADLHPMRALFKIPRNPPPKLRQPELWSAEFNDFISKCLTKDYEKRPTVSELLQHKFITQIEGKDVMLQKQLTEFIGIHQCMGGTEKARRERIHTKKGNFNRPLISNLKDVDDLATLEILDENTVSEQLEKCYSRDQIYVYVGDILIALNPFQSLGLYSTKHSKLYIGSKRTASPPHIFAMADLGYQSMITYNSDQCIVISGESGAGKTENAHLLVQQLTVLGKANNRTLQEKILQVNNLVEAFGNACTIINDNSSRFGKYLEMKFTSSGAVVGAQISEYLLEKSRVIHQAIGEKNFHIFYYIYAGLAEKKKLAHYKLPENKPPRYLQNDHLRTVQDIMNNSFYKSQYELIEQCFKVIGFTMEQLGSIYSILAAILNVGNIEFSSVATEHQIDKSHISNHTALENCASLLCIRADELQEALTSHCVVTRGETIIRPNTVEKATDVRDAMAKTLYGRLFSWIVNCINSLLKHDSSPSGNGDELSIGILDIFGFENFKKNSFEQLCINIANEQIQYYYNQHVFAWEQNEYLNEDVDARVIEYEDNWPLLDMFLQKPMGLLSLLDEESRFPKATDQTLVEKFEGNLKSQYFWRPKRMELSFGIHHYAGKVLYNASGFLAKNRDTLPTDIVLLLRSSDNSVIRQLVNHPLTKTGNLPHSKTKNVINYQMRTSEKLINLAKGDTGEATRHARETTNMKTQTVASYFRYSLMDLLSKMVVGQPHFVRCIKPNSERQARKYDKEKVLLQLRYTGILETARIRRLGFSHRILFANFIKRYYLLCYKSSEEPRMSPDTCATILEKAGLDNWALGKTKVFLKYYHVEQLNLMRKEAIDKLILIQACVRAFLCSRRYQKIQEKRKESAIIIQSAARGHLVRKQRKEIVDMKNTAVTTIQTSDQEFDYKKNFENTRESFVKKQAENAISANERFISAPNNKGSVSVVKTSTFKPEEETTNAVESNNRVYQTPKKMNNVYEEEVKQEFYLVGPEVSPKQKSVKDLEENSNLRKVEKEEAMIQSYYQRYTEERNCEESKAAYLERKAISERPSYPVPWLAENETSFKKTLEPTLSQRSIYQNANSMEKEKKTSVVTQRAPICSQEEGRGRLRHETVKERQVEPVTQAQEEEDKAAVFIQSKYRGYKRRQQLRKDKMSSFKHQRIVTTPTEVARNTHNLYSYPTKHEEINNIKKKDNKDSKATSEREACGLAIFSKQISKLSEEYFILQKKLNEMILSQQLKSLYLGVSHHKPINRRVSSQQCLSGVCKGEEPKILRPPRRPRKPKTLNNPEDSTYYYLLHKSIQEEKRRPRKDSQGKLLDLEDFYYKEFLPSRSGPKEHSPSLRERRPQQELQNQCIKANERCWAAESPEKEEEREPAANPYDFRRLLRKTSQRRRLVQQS

[42] = target: Death-associated protein kinase 2 (Homo sapiens) (UniProt Q9UIK4); test: Inhibition of DAPK2 (unknown origin) at 1 uM
Chain of Death-associated protein kinase 2 (Homo sapiens) (Q9UIK4 whole entry, looked up): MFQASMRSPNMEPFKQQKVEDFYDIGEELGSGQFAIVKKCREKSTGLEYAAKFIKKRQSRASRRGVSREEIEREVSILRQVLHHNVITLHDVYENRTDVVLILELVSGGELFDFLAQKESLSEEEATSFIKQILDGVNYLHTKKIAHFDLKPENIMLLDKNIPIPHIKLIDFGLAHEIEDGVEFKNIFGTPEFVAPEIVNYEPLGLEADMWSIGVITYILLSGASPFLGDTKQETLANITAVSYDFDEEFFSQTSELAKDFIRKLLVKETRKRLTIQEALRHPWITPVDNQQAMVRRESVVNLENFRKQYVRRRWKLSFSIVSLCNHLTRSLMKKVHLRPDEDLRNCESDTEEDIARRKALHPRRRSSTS

[43] = Half life in rat liver microsomes; assay type: ADME, Microsome
[44] = target: Serine/threonine-protein kinase D3 (Homo sapiens) (UniProt O94806); test: Inhibition of PKCnu (unknown origin) at 1 uM
[45] = target: T1, Cyclin-dependent kinase 5/CDK5 activator 1 (Homo sapiens); test: Inhibition of CDK5/p35 (unknown origin) at 1 uM; assay type: protein-complex assay

For OCCOCc1cn(CCNc2nonc2/C(=N/O)Nc2ccc(F)c(Br)c2)nn1, the inhibition [1] was “inactive”, the inhibition [2] was “inactive” and the Activity [3] was 87.4%. For the same compound, the inhibition [4] was “inactive”, the inhibition [5] was “inactive” and the inhibition [6] was “inactive”. For the same compound, the inhibition [7] was “inactive”, the inhibition [8] was “inactive” and the inhibition [9] was “inactive”. The inhibition [10] was “inactive”, the half-life [11] was 5.66 min and the inhibition [12] was “inactive”. The inhibition [13] was “inactive”, the inhibition [14] was “inactive” and the inhibition [15] was “inactive”. For the same compound, the inhibition [16] was “inactive”, the inhibition [17] was “inactive” and the inhibition [18] was “inactive”. The inhibition [19] was “inactive”, the inhibition [20] was “inactive” and the inhibition [21] was “inactive”. For the same compound, the inhibition [22] was “inactive”, the inhibition [23] was “inactive” and the inhibition [24] was “inactive”. The inhibition [25] was “Active”, the inhibition [26] was “inactive” and the inhibition [27] was “inactive”. The inhibition [28] was “inactive”, the inhibition [29] was “inactive” and the inhibition [30] was “inactive”. For the same compound, the inhibition [31] was “inactive”, the inhibition [32] was “inactive” and the inhibition [33] was “inactive”. For the same compound, the inhibition [34] was “inactive”, the inhibition [35] was “inactive” and the inhibition [36] was “inactive”. For the same compound, the inhibition [37] was “inactive”, the inhibition [38] was “inactive” and the inhibition [39] was “inactive”. The inhibition [40] was “inactive”, the inhibition [41] was “inactive” and the inhibition [42] was “inactive”. For the same compound, the half-life [43] was 21.2 min, the inhibition [44] was “inactive” and the inhibition [45] was “inactive”.
